The test system of one assay is MDA-MB-435. The experiment in a line: Cytotoxicity against human MDA-MB-435 cells after 72 hrs by MTT assay. The assay is classed as functional, cell-based. On the technique in general: Formazan colour is commonly taken as a measure of viable cells.
A short description of assay [1]: Cytotoxicity against human HL60 cells after 72 hrs by MTT assay. The format is functional, cell-based, HL-60.
A short description of assay [2]: Cytotoxicity against human HCT8 cells after 72 hrs by MTT assay. The assay is classed as functional, cell-based, HCT-8.
Assay [3] is described as follows: Cytotoxicity against human SF295 cells after 72 hrs by MTT assay. The format is functional, cell-based, SF-295.

The structures appear in SMILES notation.

The term IC50 denotes the concentration that inhibits the measured activity by half. High values mean weaker potency in that assay, low ones greater potency in that assay. For the compound `CCCCNC(C1=C(O)C(=O)c2ccccc2C1=O)c1cc(Br)ccc1O` (stereo not drawn), the 50% inhibitory concentration (IC50) in the assay on MDA-MB-435 (mda-mb-435) came to 23.9 µM; in assay [1] (hl-60), 6.2 µM; in assay [2] (hct-8), 12.5 µM; in assay [3] (Homo sapiens, SF-295, 72 h) it was 21.4 µM.

For the compound `O=C1C(O)=C(C(NCCCCl)c2ccccc2)C(=O)c2ccccc21` (stereo not drawn), the IC50 in the assay with MDA-MB-435 (Homo sapiens, MDA-MB-435, 72 h) is over 40 µM; in assay [1] (Homo sapiens, HL-60, 72 h) it was over 40 µM; in assay [2] (Homo sapiens, HCT-8, 72 h), over 40 µM; in assay [3] (Homo sapiens, SF-295, 72 h), over 40 µM.

With `Cc1ccc(NC(C2=C(O)C(=O)c3ccccc3C2=O)c2ccccn2)cc1` (stereo not drawn), the IC50 with MDA-MB-435 (Homo sapiens, MDA-MB-435, 72 h) was over 40 µM; in assay [1] (Homo sapiens, HL-60, 72 h), over 40 µM; in assay [2] (Homo sapiens, HCT-8, 72 h), over 40 µM; in assay [3] (Homo sapiens, SF-295, 72 h), over 40 µM.

`CC(C)(C)OC(=O)NCCNC(C1=C(O)C(=O)c2ccccc2C1=O)c1ccc(Cl)cc1Cl` (stereo not drawn): the IC50 was over 40 µM in the assay on MDA-MB-435 (Homo sapiens, MDA-MB-435, 72 h); over 40 µM in assay [1] (Homo sapiens, HL-60, 72 h); over 40 µM in assay [2] (Homo sapiens, HCT-8, 72 h); over 40 µM in assay [3] (Homo sapiens, SF-295, 72 h).

For the compound `O=C1C(O)=C(C(NCCCCl)c2cc(Br)ccc2O)C(=O)c2ccccc21` (stereo not drawn), the concentration for half-maximal inhibition (IC50) with MDA-MB-435 (Homo sapiens, MDA-MB-435, 72 h) is over 40 µM; in assay [1] (Homo sapiens, HL-60, 72 h), 8.4 µM; in assay [2] (Homo sapiens, HCT-8, 72 h), over 40 µM; in assay [3] (Homo sapiens, SF-295, 72 h), 28.8 µM.

Regarding `O=C1C(O)=C(C(NCc2ccccn2)c2ccccc2)C(=O)c2ccccc21` (stereo not drawn), the 50% inhibitory concentration (IC50) is over 40 µM with MDA-MB-435 (mda-mb-435), over 40 µM in assay [1] (hl-60), 14.3 µM in assay [2] (hct-8) and over 40 µM in assay [3] (sf-295).

As to `CC(C)(C)OC(=O)NCCNC(C1=C(O)C(=O)c2ccccc2C1=O)c1ccccc1O` (stereo not drawn), the half-inhibitory concentration (IC50) in the assay with MDA-MB-435 (Homo sapiens, MDA-MB-435, 72 h) turned out to be 26.3 µM; in assay [1] (Homo sapiens, HL-60, 72 h) it was 19.2 µM; in assay [2] (Homo sapiens, HCT-8, 72 h), 10.8 µM; in assay [3] (Homo sapiens, SF-295, 72 h) it was 15.9 µM.

Regarding `Cc1ccc(O)c(C(NCc2ccccc2)C2=C(O)C(=O)c3ccccc3C2=O)c1` (stereo not drawn), the half-inhibitory concentration (IC50) with MDA-MB-435 (mda-mb-435) turned out to be 15.8 µM; in assay [1] (Homo sapiens, HL-60, 72 h), 7.2 µM; in assay [2] (hct-8), 11.3 µM; in assay [3] (Homo sapiens, SF-295, 72 h), 8.5 µM.

Take `O=C1C(O)=C(C(NCc2ccccc2)c2ccccc2O)C(=O)c2ccccc21` (stereo not drawn): the concentration for half-maximal inhibition (IC50) turned out to be 18.9 µM with MDA-MB-435 (mda-mb-435); 3.9 µM in assay [1] (Homo sapiens, HL-60, 72 h); 15.6 µM in assay [2] (hct-8); 23.1 µM in assay [3] (Homo sapiens, SF-295, 72 h).

`CCCCNC(C1=C(O)C(=O)c2ccccc2C1=O)c1cc(C)ccc1O` (stereo not drawn): the IC50 was 11 µM in the assay on MDA-MB-435 (mda-mb-435), 1.6 µM in assay [1] (hl-60), 5.6 µM in assay [2] (hct-8) and 5.5 µM in assay [3] (sf-295).

Turning to `CCCCNC(C1=C(O)C(=O)c2ccccc2C1=O)c1ccc(Cl)cc1Cl` (stereo not drawn), the IC50 with MDA-MB-435 (Homo sapiens, MDA-MB-435, 72 h) is over 40 µM; in assay [2] (Homo sapiens, HCT-8, 72 h) it was over 40 µM.

In the case of `CC(C)(C)OC(=O)NCCCNC(C1=C(O)C(=O)c2ccccc2C1=O)c1ccccc1` (stereo not drawn), the concentration for half-maximal inhibition (IC50) is over 40 µM with MDA-MB-435 (Homo sapiens, MDA-MB-435, 72 h); over 40 µM in assay [1] (Homo sapiens, HL-60, 72 h); over 40 µM in assay [2] (Homo sapiens, HCT-8, 72 h); over 40 µM in assay [3] (Homo sapiens, SF-295, 72 h).

For the compound `CCCCNC(C1=C(O)C(=O)c2ccccc2C1=O)c1ccccc1O` (stereo not drawn), the IC50 was over 40 µM in the assay with MDA-MB-435 (Homo sapiens, MDA-MB-435, 72 h); over 40 µM in assay [1] (hl-60); over 40 µM in assay [2] (Homo sapiens, HCT-8, 72 h); over 40 µM in assay [3] (sf-295).

Regarding `CCCCCCCNC(C1=C(O)C(=O)c2ccccc2C1=O)c1cccc(O)c1` (stereo not drawn), the IC50 in the assay on MDA-MB-435 (Homo sapiens, MDA-MB-435, 72 h) was over 40 µM; in assay [1] (Homo sapiens, HL-60, 72 h) it was over 40 µM; in assay [2] (Homo sapiens, HCT-8, 72 h), over 40 µM; in assay [3] (Homo sapiens, SF-295, 72 h), over 40 µM.

With `CCCCCCCNC(C1=C(O)C(=O)c2ccccc2C1=O)c1ccccc1` (stereo not drawn), the IC50 in the assay with MDA-MB-435 (Homo sapiens, MDA-MB-435, 72 h) is over 40 µM; in assay [1] (Homo sapiens, HL-60, 72 h), over 40 µM; in assay [2] (Homo sapiens, HCT-8, 72 h) it was over 40 µM; in assay [3] (Homo sapiens, SF-295, 72 h), over 40 µM.

For the compound `O=C1C(O)=C(C(NCc2ccccc2)c2ccc([N+](=O)[O-])cc2)C(=O)c2ccccc21` (stereo not drawn) [listing 1 of 2 here], the IC50 in assay [1] (Homo sapiens, HL-60, 72 h) is over 40 µM; in assay [3] (Homo sapiens, SF-295, 72 h) it was over 40 µM.

In the case of `CC(C)(C)OC(=O)NCCNC(C1=C(O)C(=O)c2ccccc2C1=O)c1cccc(O)c1` (stereo not drawn), the IC50 with MDA-MB-435 (Homo sapiens, MDA-MB-435, 72 h) was over 40 µM; in assay [1] (Homo sapiens, HL-60, 72 h), over 40 µM; in assay [2] (Homo sapiens, HCT-8, 72 h) it was over 40 µM; in assay [3] (Homo sapiens, SF-295, 72 h) it was over 40 µM.

Consider `O=C1C(O)=C(C(NCc2ccccc2)c2cc(Br)ccc2O)C(=O)c2ccccc21` (stereo not drawn) [listing 1 of 2 here], for which the IC50 is over 40 µM in the assay on MDA-MB-435 (Homo sapiens, MDA-MB-435, 72 h); 4.9 µM in assay [1] (hl-60); 15.9 µM in assay [2] (Homo sapiens, HCT-8, 72 h); 10.7 µM in assay [3] (sf-295).

For `O=C1C(O)=C(C(NCCCCl)c2ccc([N+](=O)[O-])cc2)C(=O)c2ccccc21` (stereo not drawn), the IC50 in the assay on MDA-MB-435 (Homo sapiens, MDA-MB-435, 72 h) was over 40 µM; in assay [1] (Homo sapiens, HL-60, 72 h), over 40 µM; in assay [2] (Homo sapiens, HCT-8, 72 h), over 40 µM; in assay [3] (Homo sapiens, SF-295, 72 h), over 40 µM.

Regarding `O=C1C(O)=C(C(NCc2ccccc2)c2cc(Br)ccc2O)C(=O)c2ccccc21` (stereo not drawn) [listing 2 of 2 here], the IC50 worked out at 25.2 µM in the assay with MDA-MB-435 (mda-mb-435); 8.4 µM in assay [1] (Homo sapiens, HL-60, 72 h); 14.9 µM in assay [2] (hct-8); 17.4 µM in assay [3] (Homo sapiens, SF-295, 72 h).

Turning to `COc1cccc2c1C(=O)c1c(O)c3c(c(O)c1C2=O)C[C@@](O)(C(=O)CO)C[C@@H]3O[C@H]1C[C@H](N)[C@H](O)[C@H](C)O1` [DOXORUBICIN], the IC50 in assay [1] (Homo sapiens, HL-60, 72 h) was 0.03 µM; in assay [3] (Homo sapiens, SF-295, 72 h), 0.39 µM.

For `O=C1C(O)=C(C(NCc2ccccc2)c2ccc([N+](=O)[O-])cc2)C(=O)c2ccccc21` (stereo not drawn) [listing 2 of 2 here], the 50% inhibitory concentration (IC50) was over 40 µM in the assay on MDA-MB-435 (Homo sapiens, MDA-MB-435, 72 h) and over 40 µM in assay [2] (Homo sapiens, HCT-8, 72 h).

`CC(C)(C)OC(=O)NCCCNC(C1=C(O)C(=O)c2ccccc2C1=O)c1ccc(Cl)cc1Cl` (stereo not drawn): the IC50 in the assay on MDA-MB-435 (Homo sapiens, MDA-MB-435, 72 h) is 16.2 µM; in assay [2] (Homo sapiens, HCT-8, 72 h), 21.2 µM; in assay [3] (Homo sapiens, SF-295, 72 h), over 40 µM.

Source of the values: ChEMBL document CHEMBL3822389, “New insights into 3-(aminomethyl)naphthoquinones: Evaluation of cytotoxicity, electrochemical behavior and search for structure-activity correlation” (Bioorg Med Chem Lett, 2016).
